One experiment relates to rat articular cartilage. Kind of experiment: Papain-induced OA rat model, type II and type X collagen immunohistochemistry. It is filed as in vivo, Sprague-Dawley rats. As to conditions: OA plus PTH group, 10 nM intraarticular. The procedure: Fifty-four 12-week-old male Sprague-Dawley rats (250-300 gm) were purchased from BioLASCO Taiwan and housed under standard laboratory conditions (temperature 24° C., 12-hour light-dark cycle) with food and water ad libitum. The animals were acclimatized to the laboratory environment for 1 week before the experiments.
Rats were divided into the following 3 groups: OA (OA induction without PTH [1-34] treatment) (n=18), OA plus PTH (PTH [1-34] treatment followed by OA induction) (n=18), and PTH (PTH [1-34] treatment without OA induction) (n=18). Each left knee, which served as the contralateral control joint, was injected with vehicle without PTH treatment or OA induction. The right knees were the study joints. OA was induced in the right knees of rats in the OA and OA plus PTH groups with intraarticular injections of 20 μl of 4% papain solution and 20 μl of 0.03M cysteine. The injections were given with a 26-gauge needle via the patellar tendon on days 1, 4, and 7 of the experiment (see e.g., Nucl Med Commun (1996) 17(6): 529-35). In the OA plus PTH group, after OA induction, the right knees were injected intraarticularly with 40 μl of 10 nM PTH (1-34) every 3 days until rats were killed. In the PTH group, the same PTH (1-34) treatment was performed but without OA induction. Six rats from each group were killed by CO2 inhalation at the same time points as rats in the OA plus PTH group, in which PTH (1-34) treatment was given for 1, 3, and 5 weeks.
After rats were killed, the knees were harvested, and the tibia plateaus with articular cartilage were collected and fixed with 10% neutral buffered formalin prior to histologic preparation. The samples were then decalcified in 10% formic acid/PBS. The decalcified tibia articular samples were paraffin embedded, and 5-μm microsections in the coronary plane were prepared. GAG was stained with Safranin O-fast green (1% Safranin O counterstained with 0.75% hematoxylin and then 1% fast green) (Sigma, St. Louis Mo.). Localized type II collagen and type X collagen were immunostained. Apoptotic cells in cartilage were TUNEL stained.
The tibia articular sections were rehydrated, and the endogenous peroxidase in tissue was blocked with 3% hydrogen peroxide. Samples were digested by enzymes for epitope retrieval before incubation with primary antibodies (see e.g. J Histochem Cytochem (2002) 50(8): 1049-58). The optimal condition for enzyme digestion for type II collagen immunostaining was a mixture of 2.5% hyaluronidase and 1 mg/ml of Pronase in PBS (pH 7.4; Sigma) at 37° C. for 1 hour. […] The relative density of immunostaining (density/area; mean±SEM area 25.44±2.77 mm^2) was measured using Image-Pro Plus software, version 5.0 (Media Cybernetics).

Experiment [1] has as its system human articular chondrocytes. The experiment can be described thus: TUNEL staining, rate of apoptosis in chondrocyte cultures. It is filed as cell-based. The settings on record: azaC plus PTH cultures, 10 nM, 14 days of treatment, P<0.01. The procedure: Chondrocyte cultures were divided into 4 groups.
We measured apoptotic cells using the TUNEL (terminal deoxy-nucleotidyl transferase mediated dUTP nick end labeling) staining method using the In Situ Cell Death Detection Kit, TMR red (Roche, Mannheim, Germany). Following the manufacturer's guidelines, cells were fixed with 4% paraformaldehyde in phosphate buffered saline (PBS) at a cell density of 1×10^6/ml and incubated at room temperature for 10 minutes, and then settled on a slide by centrifugation at a speed of 2,000 rpm for 5 minutes using a cytospin (Cytospin 3; Shandon, Cheshire, UK). Slides were rinsed twice with PBS, and the cells were permeabilized by incubating in permeabilization solution (0.1% Triton X-100 in 0.1% sodium citrate) for 2 minutes on ice. The TUNEL reaction mixture containing terminal deoxynucleotidyl transferase and rhodamine (the labeling dye) was added to the slides and incubated at 37° C. in a humidified chamber in the dark for 60 minutes. The reaction was stopped by a blocking buffer (0.1% Triton X-100/0.5% bovine serum albumin in PBS). Cells were counterstained by 4′,6-diamidino-2-phenylindole (DAPI). The slides were observed under a fluorescence microscope with an excitation wavelength of 580 nm for rhodamine and 365 nm for DAPI. Cell nuclei were stained blue by DAPI, and only apoptotic cells were stained red by rhodamine. Stained cells were counted in 5 microscopic fields (1.566 mm^2/field) on each slide. Data were analyzed using Image-Pro Plus analysis software (Media Cybernetics, Silver Spring, Md.). The rate of apoptosis in chondrocytes was defined as the ratio of red-stained cells (apoptotic cells) to blue-stained cells (total cells).
By using TUNEL staining, the rate of apoptosis in human articular chondrocyte cultures in the control, azaC, and azaC plus PTH groups were compared after 14 days of PTH(1-34) treatment (for the azaC plus PTH group).

We go through one substance from US8586533B2, “Treatment of early-stage osteoarthritis” (Kaohsiung Medical University, priority 2008, dated 2013).

For the substance “PTH (1-34): 34-amino acid long peptide made up of amino-terminal amino acids 1 through 34 of human parathyroid hormone”, the “Immunolocalized type X collagen in cartilage compared with OA group” value with rat articular cartilage (3 and 5 weeks) is “less evident”. Besides, the “density of immunolocalized type II collagen versus contralateral control cartilage” value with rat articular cartilage (3 weeks) is recorded as “not different”. Further, in the experiment with rat articular cartilage (3 weeks, P<0.05), the “density of immunolocalized type II collagen versus OA group” value was “significantly higher”. In the experiment with rat articular cartilage (5 weeks), the “density of immunolocalized type II collagen versus OA group (P<0.01) and contralateral control (P<0.05)” value is reported as “significantly higher”. In experiment [1], the “rate of apoptosis versus azaC cultures” value is on record as “significantly lower” and the “rate of apoptosis versus control cultures” value was found to be 3.1 fold increase.
